Assay results taken from PubChem BioAssay AID2305 (GlaxoSmithKline (GSK), 2010).

system: P. falciparum 3D7 growth, pLDH absorbance; experiment: P. falciparum 3D7 growth inhibition, dose response, strain 3D7 (AID 2305)

Structure (SMILES) | IC50 [nM]
Cc1cccc(NC(=S)NC2CCN(CCCCCNC(=O)/C=C/c3ccc(Cl)c(Cl)c3)CC2)c1 | 950
COc1ccc(-c2cccc(NC(=O)c3cccc(Cl)c3)c2)cc1CNC(C)C | 720
O=C(NCc1cccc(C(F)(F)F)c1)C(c1cc2ccccc2o1)N1CCN(C(c2ccccc2)c2ccccc2)CC1 (stereo not drawn) | 500
Cc1nc2ccc3ccc(CN(C)c4ccc(C(=O)N[C@@H](CCC(=O)O)C(=O)O)cc4)cc3c2c(=O)[nH]1 | 880
O=C(/C=C/c1cccc2ccccc12)NCCCCCN1CCC(c2c[nH]c3ccccc23)CC1 | 1140
CN(C)CC(O)C(O)(c1ccccc1)c1ccc(F)cc1 (stereo not drawn) | 1150
Cc1nc(-c2ccncc2)sc1C(=O)Nc1ccc(Cl)cc1C(=O)Nc1ccc(Cl)cc1 | 760
Cc1cc(C)n(-c2nc(Nc3cccc(C(F)(F)F)c3)nc(-n3nc(C)cc3C)n2)n1 | 360
Cc1[nH]c(C)c(-c2ccc(OCc3ccc(F)cc3)cc2)c(=O)c1Cl | 570
COc1ccc(NC(=O)/C=C/c2ccc(-c3ccccc3)cc2)cc1N1CCN(C)CC1 | 910
Cc1noc(-c2ccc(O)cc2O)c1-c1ccc2c(c1)OCCCO2 | 890
OC(CNc1ccnc(Nc2ccccc2)n1)c1cccc(C(F)(F)F)c1 (stereo not drawn) | 650
N#Cc1cccc(NC(=O)Nc2ccc(-c3csc(-c4nc5ccccc5[nH]4)c3)cc2)c1 | 150
Cn1nc(C(F)(F)F)c(-c2ccc(F)cc2)c1NC(=O)Nc1ccc(F)cc1 | 750
Cc1cc(C(=O)Nc2ccc(-c3ccccc3)cc2)no1 | 690
CCN(CC)CCN(Cc1ccc(-c2ccc(C(F)(F)F)cc2)cc1)C(=O)Cn1c(CCc2cc(F)cc(F)c2F)nc(=O)c2ccccc21 | 760
Cc1ccc(OC2CCN(c3ccc(C(=O)NC4CC4)cn3)CC2)cc1 | 1300
COc1ccc2nccc([C@@H](O)CN3CCC(NCCNc4cccc(F)c4)CC3)c2c1 | 180
CN1CCN(c2ccnc3ccc(NC(=O)Nc4ccc5c(c4)CCCC5=O)cc23)CC1 | 130
Oc1cccc(-c2nc(-c3ccccc3)c(-c3ccc4oc5ccc(-c6[nH]c(-c7cccc(O)c7)nc6-c6ccccc6)cc5c4c3)[nH]2)c1 | 790
Cc1cc(N[C@@H](Cc2ccccc2)C(=O)NC2CCCC2)nc(NCc2ccccc2C)n1 | 1230
CCOC(=O)c1cnc2c(C(F)(F)F)cccc2c1Nc1ccc(O)cc1 | 630
CC(=O)N(C)c1ccc(C(=O)Nc2cccc(-c3cccc(-c4nc5ccc(C(F)(F)F)cc5[nH]4)c3)c2)cc1 | 310
CN(C)CCNC(=O)c1cc2c(-c3ccc(Cl)cc3)nn(C)c2s1 | 670
NC(=NCc1ccccc1)Nc1nc(-c2ccc(OCCCn3ccnc3)cc2)cs1 | 250

Structure (SMILES) | IC50 [nM]
CCOc1ccc2ccccc2c1CNCCCCCCNCc1c(OCC)ccc2ccccc12 | 580
Cc1c(C)n(C2CCCCC2)c2ncnc(OC3CCN(CC(=O)NC4CC4)CC3)c12 | 1240
CN(C)CCNCc1cccc(-c2ccc3c(Nc4ccc(Oc5ccccn5)cc4)ccnc3c2)c1 | 230
CN1CCC(N2CCN(Cc3ccc(-c4ccc(-c5nc6ccc(F)cc6[nH]5)s4)cc3)CC2)CC1 | 150
Nc1nc(N)c2c(ccc3c2ncn3Cc2ccccc2)n1 | 90
O=c1[nH]ccc2nc(N[C@@H]3CCNC3)nc(Nc3cc(Cl)cc(Cl)c3)c12 | 740
CC(=O)c1cccc2[nH]c(C(=O)NC3CCC(CCN4CCc5ccc(C#N)cc5C4)CC3)cc12 (stereo not drawn) | 840
O=C(NCc1cccs1)[C@H](Cc1ccccc1)Nc1ccnc(NCCc2ccc(F)cc2)n1 | 1450
Cc1ccc2nc(C)cc(NN=Cc3cccc(Cl)c3)c2c1 | 740
CN1CCCN(Cc2cccc(-c3ccc(NC(=O)c4cccc(C#N)c4)cc3)c2)CC1 | 720
NC1=NC(c2ccccc2)(c2ccccc2)C(=O)N1CCCCc1ccccn1 | 1260
CC(Cl)=CCc1c(C)[nH]c2c(ccc3ccccc32)c1=O | 200
O=C(Nc1cc(C(F)(F)F)cc(C(F)(F)F)c1)c1cc(Cl)ccc1O | 1310
Fc1ccc2[nH]c(-c3ccccc3)nc2c1CN1CCC(N2CCCC2)CC1 | 720
Cc1nc2ccccc2n1C1C[C@H]2CC[C@@H](C1)N2Cc1nccn1-c1ccccc1 (stereo partly drawn) | 370
Oc1cccc(-c2nc(-c3ccccc3)c(-c3ccc(Oc4ccc(-c5[nH]c(-c6cccc(O)c6)nc5-c5ccccc5)cc4)cc3)[nH]2)c1 | 860
CC[C@H](NC(=O)c1c(CCCN2CCN(c3ccccc3)CC2)c(-c2ccccc2)nc2cc(O)ccc12)c1ccccc1 | 780
Cc1cccc2[nH]c(-c3cccc(-c4ccc(NC(=O)c5ccc(=O)[nH]n5)cc4)c3)nc12 | 860
CCOc1cc2c(cc1S(=O)(=O)c1ccc(COc3ccc(C(F)(F)F)cc3)cc1)CCN(C)CC2 | 1020
c1cncc(-c2cc(N3CCCCC3)nc(-c3ccncc3)n2)c1 | 770
Oc1ccc(CCNc2nc(NCc3ccccc3-c3ccc(C(F)(F)F)cc3)nc(N3CCCNCC3)n2)cc1 | 870
CCOC(=O)c1c(SCc2cccc(F)c2F)[nH]c2ccccc2c1=O | 640
CNC(=O)NC1=NC(C)(C)N(OCCCOc2cc(Cl)c(Cl)cc2Cl)C(N)=N1 | 930
COc1ccc(CC(=O)NC(CCCN2CCC3(CC2)OCc2ccccc23)c2ccc(Cl)c(Cl)c2)cc1 (stereo not drawn) | 1130
COc1ccc(-c2ccc(NC(=O)c3cccc(F)c3)cc2)cc1CNC(C)C | 810

Structure (SMILES) | IC50 [nM]
O=C(NC1CCC(N2CCC(Cc3ccc(F)cc3)CC2)CC1)c1cc2ccccc2[nH]1 (stereo not drawn) | 870
CCn1c(-c2nonc2N)nc2c(-c3ccc(CO)o3)ncc(OCCCN)c21 | 1360
COc1ccc(C(=O)Nc2ccc(Nc3nc(C)cc(N(C)C)n3)cc2)c(OC)c1 | 870
CC(C)c1ccc2c(c1)c(SC(C)(C)C)c(CC(C)(C)C#N)n2Cc1ccc(Cl)cc1 | 220
Cc1nc(N)nc(N)c1OCCCCCCOc1ccccc1 | 240
O=C(Nc1cccnc1)c1cc(C(=O)Nc2cccnc2)cc([N+](=O)[O-])c1 | 1120
CC(C)CN1C(=O)c2ccccc2C(C(=O)Nc2cccc(C#N)c2)C1c1cccs1 (stereo not drawn) | 160
O=C(NCc1cccc(C(F)(F)F)c1)c1ccc(-c2nc3cc(F)c(F)cc3[nH]2)cc1 | 780
N#Cc1ccc(CCNc2nccc(-c3cccc(CN4CCNCC4)c3)n2)cc1 | 1250
CC(Cc1ccc(OCCN2CCN(c3cccc(Cl)c3)CC2)cc1)NCC(O)c1cccc(Cl)c1 (stereo not drawn) | 1210
Cc1nc2ccccn2c1C1(O)C(=O)Nc2c(Cl)cc(Cl)cc21 (stereo not drawn) | 1590
Cc1cc(N[C@@H](CC(C)C)C(=O)NCCCOC(C)C)nc(NCCc2ccc(F)cc2)n1 | 1250
O=S(=O)(NCCN1CCCC1)c1ccc(-c2cccc(CNCc3ccccc3)c2)s1 | 810
CCN(c1ccccc1)S(=O)(=O)c1ccc(NC(=O)c2cc(-c3cc(C)ccc3O)n[nH]2)cc1 | 770
COc1ccccc1N1CCN(c2cccc(F)c2C#N)CC1 | 960
O=C(NCC1CCC(C(=O)O)CC1)c1ccc(/C=C/C(=O)N2CCc3ccccc3C2c2ccc3c(c2)OCO3)cc1 (stereo not drawn) | 890
CS(=O)(=O)c1ccc(-c2cnc(N)c(-c3cccc(O)c3)c2)cc1 | 690
O=C(/C=C/c1ccc(-c2nc3cc(F)c(F)cc3[nH]2)cc1)NCc1ccc(Cl)c(Cl)c1 | 940
O=C(O)CNCC(O)c1ccccc1 (stereo not drawn) | 180
O=C(Nc1ccc(Oc2ccccc2)cc1)N1CCC(CCN2CCC(c3c[nH]c4ccccc34)CC2)CC1 | 800
CC(C)(C)CNc1noc(-c2sccc2Br)n1 | 1120
O=C(Oc1ccc(C2CNCCc3c2cc(OC(=O)c2ccc(O)cc2)c(OC(=O)c2ccc(O)cc2)c3Cl)cc1)c1ccc(O)cc1 (stereo not drawn) | 980
O=C(c1ccc(O)c(-c2cc(Cl)cc(Cl)c2)c1)N1CCCC1 | 1000
C[C@@H]([C@@H](CCCc1ccc(Cl)cc1)C(=O)N[C@H](C(=O)Nc1cccnc1)C(C)(C)C)N(O)C=O | 720
CNc1c2c(nc3ccc(NC(=O)CCCCCCc4ccccc4)cc13)CCCC2 | 920

Structure (SMILES) | IC50 [nM]
CC(C)NCC(O)COc1ccc(Cc2ccc(OCC(O)CNC(C)C)cc2)cc1 (stereo not drawn) | 650
CCn1c(-c2nonc2N)nc2c(-c3cccc(NC(=O)Nc4ccc(C(F)(F)F)cc4)c3)ncc(OCCCN)c21 | 1050
CCCC(C)NC[C@@H](O)[C@H](Cc1ccccc1)NC(=O)c1cc(C2CCCC2)cc(N2CCCCS2(=O)=O)c1 (stereo partly drawn) | 150
CC(C)c1sc(N2CCN(C)CC2)nc1C(=O)Nc1cccc2c1CCCC2 | 1280
CC(C)(C)NCC(O)COc1ccc(Cl)cc1C1=NNC(=O)CC1 (stereo not drawn) | 150
COc1cc(F)c2nccc([C@@H](O)CN3CC[C@@H](NC(=O)OCc4ccccc4)[C@@H](F)C3)c2c1 | 410
CCCCCCN1CCC(NCc2ccc(C)cc2)CC1 | 860
COc1cccc(CCc2nc3c(N4CCC(Cc5ccccc5)CC4)cccc3n2CC2CNCCO2)c1 (stereo not drawn) | 800
O=c1cc(NCCCCNCc2ccc(Br)c(Br)c2)[nH]c2ccccc12 | 860
N#Cc1cccc(NC(=O)Nc2cccc(-c3cccc(-c4nc5ccccc5[nH]4)c3)c2)c1 | 90
COc1cc(F)c2ncc(Cl)c([C@@H](O)CN3CCC(NCc4cc5c(cn4)OCCO5)CC3)c2c1 | 100
CC(CCc1ccccc1)NCC(O)c1cccc([N+](=O)[O-])c1 (stereo not drawn) | 860
CNCCNCc1ccc(-c2ccc(-c3nc4ccc(F)cc4[nH]3)cc2)cc1 | 390
COc1ccc2nccc([C@@H](O)CN3CCC(NC(=O)c4ccc(C5(C(F)(F)F)N=N5)cc4)CC3)c2c1 | 930
COc1c(C2CCN(CCCCNC(=O)c3cccc(-c4ccc(C(F)(F)F)cc4)c3)CC2)ccc2c1CCCC2 | 780
O=C(C=Cc1ccc(Cl)c(Cl)c1)NCCCCCN1CCC(CCCNC(=O)[C@@H]2C[C@H]2c2ccccc2)CC1 | 770
Cc1cccc2[nH]c(-c3ccc(-c4ccc(CNCc5ccc(CN)cc5)cc4)cc3)nc12 | 720
COc1ccccc1NC(=O)Nc1cccc(-c2cccc(-c3nc4c(C)cccc4[nH]3)c2)c1 | 100
Cn1cncc1C(=O)Nc1cccc(-c2ccc(-c3nc4ccc(F)cc4[nH]3)s2)c1 | 870
O=C(Nc1ccc2c(c1)CCC2)c1ccc(N2CCN(c3ccncc3)CC2)cn1 | 860
CCOc1cc(NCCSCc2nc[nH]c2C)nc2ccccc12 | 790
COc1ccc2nccc(N3CCN(CCNCc4ccc5c(n4)NC(=O)CO5)CC3)c2c1 | 1160
COc1cccc(Nc2nc(C)cc(Nc3cccc(C#N)c3)n2)c1 | 1080
